The nature of data set [1]: Chin temperature after ingestion in human subjects (sympathetic autonomic activity). Format: in vivo. Conditions: for AUC difference in chin temperature relative to placebo: Z10, comparison vs Pl (placebo). As to the method: The chin temperature of the subjects was measured over the eighty minutes following ingestion of the various compounds. […] The increased sympathetic activity identified by measuring the facial temperature (increased blood flow on the chin) might explain the increased energy expenditure measured by indirect calorimetry.

Data set [2] is described as follows: Comparative taste testing in human subjects. Format: in vivo. The following applies: 4.8 ppm capsaicin or 350 ppm cinnamaldehyde, FIG. 9. As to the method:
Human subjects were administered a composition comprising 4.8 ppm capsaicin or 350 ppm cinnamaldehyde. […] 87.9% of the participants judged capsaicin intense to very intense, compared to only 20.5% for cinnamaldehyde. To achieve a similar effect on fat oxidation of capsaicin and cinnamaldehyde, the dose of capsaicin is about 1.5 times less than the maximum that can be used as a flavor (7 ppm according to Fenaroli's Handbook; Burdock, 2010), and the dose of cinnamaldehyde is about 17.5 times less than the maximum that can be used as a flavor (6191.0 ppm according to Fenaroli's Handbook; Burdock, 2010).

Data set [3] in a line: Nose temperature after ingestion in human subjects. Conditions: fifteen minutes following ingestion, FIG. 7. In kind it is in vivo. As for the experimental part:
The nose temperature of the subjects was analyzed over the fifteen minutes following ingestion of the various compounds.

For data set [4], the target named is T1, hTRPA1 expressed in CHO cells (Homo sapiens, UniProt O75762).
T1 construct: expressed in transfected cells; host or cells: CHO cells
The data set can be described thus: In vitro activity of hTRPA1 expressed in CHO cells (intracellular calcium, fluorescent dye). In kind it is cell-based. Set-up: in vitro activity of hTRPA1, positive control efficacy: dose or concentration left out as unconfirmed. On the technique in general: Calcium assays in cells follow changes in intracellular calcium, usually with a dye or a luminescent sensor.

Data set [5] can be described thus: Energy expenditure after ingestion in human subjects. Format: in vivo. As to the method:
Human subjects were administered placebo, a cooling flavor, capsaicin, or cinnamaldehyde. The energy expenditure was measured over the eighty minutes following ingestion.

In a further data set the target is TRPA1 (Homo sapiens, UniProt O75762). The following applies: background statement; read-out: EC50 for activation of TRPA1; cited from earlier work.
The target in another data set is TRPV1 (Homo sapiens, UniProt Q8NER1). Conditions: background statement; cited from earlier work.
The target in a further data set is TRPM8 (Homo sapiens, UniProt Q7Z2W7). The following applies: background statement; cited from earlier work.
A short description of data set [6]: Postprandial fat oxidation after ingestion in human subjects. In kind it is in vivo. As for the experimental part: The postprandial fat oxidation was measured over the 90 minutes following ingestion of the various compounds.
Where [7] appears, read: flavoring level of cinnamaldehyde judged significantly less intense than capsaicin.

A value given as a limit tells only on which side of the number the result lay.

T1 sequence (O75762 whole entry): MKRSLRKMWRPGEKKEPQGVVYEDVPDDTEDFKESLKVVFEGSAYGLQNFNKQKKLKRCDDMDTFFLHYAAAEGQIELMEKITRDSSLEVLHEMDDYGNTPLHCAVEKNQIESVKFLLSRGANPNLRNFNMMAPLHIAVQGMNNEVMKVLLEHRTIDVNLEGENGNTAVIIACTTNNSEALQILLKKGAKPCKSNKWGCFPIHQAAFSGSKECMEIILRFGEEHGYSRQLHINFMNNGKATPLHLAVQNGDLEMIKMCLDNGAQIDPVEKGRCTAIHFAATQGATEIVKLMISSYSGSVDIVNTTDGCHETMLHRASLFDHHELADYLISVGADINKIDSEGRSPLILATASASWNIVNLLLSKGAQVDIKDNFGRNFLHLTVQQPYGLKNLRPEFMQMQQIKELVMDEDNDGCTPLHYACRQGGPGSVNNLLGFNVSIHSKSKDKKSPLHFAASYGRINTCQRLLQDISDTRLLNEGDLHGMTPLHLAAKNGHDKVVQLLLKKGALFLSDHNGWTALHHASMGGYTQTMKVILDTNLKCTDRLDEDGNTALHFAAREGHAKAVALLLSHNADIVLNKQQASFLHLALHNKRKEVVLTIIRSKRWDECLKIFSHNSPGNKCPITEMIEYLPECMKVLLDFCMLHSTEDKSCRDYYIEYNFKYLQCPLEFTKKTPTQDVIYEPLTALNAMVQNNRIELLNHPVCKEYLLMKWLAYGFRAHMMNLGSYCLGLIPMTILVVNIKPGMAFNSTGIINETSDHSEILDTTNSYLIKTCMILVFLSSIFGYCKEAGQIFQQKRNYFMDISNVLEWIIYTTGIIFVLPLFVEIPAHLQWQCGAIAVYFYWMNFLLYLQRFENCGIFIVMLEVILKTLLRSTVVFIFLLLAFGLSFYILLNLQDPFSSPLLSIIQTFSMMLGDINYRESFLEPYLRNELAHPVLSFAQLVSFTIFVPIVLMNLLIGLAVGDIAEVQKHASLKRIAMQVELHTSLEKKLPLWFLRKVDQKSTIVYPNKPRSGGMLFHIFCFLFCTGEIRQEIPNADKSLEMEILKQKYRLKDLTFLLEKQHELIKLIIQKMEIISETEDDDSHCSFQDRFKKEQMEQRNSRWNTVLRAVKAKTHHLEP
Sequence of TRPA1 (O75762 whole entry, species assumed): as the sequence (O75762 whole entry) above
Sequence of TRPV1 (Q8NER1 whole entry, species assumed): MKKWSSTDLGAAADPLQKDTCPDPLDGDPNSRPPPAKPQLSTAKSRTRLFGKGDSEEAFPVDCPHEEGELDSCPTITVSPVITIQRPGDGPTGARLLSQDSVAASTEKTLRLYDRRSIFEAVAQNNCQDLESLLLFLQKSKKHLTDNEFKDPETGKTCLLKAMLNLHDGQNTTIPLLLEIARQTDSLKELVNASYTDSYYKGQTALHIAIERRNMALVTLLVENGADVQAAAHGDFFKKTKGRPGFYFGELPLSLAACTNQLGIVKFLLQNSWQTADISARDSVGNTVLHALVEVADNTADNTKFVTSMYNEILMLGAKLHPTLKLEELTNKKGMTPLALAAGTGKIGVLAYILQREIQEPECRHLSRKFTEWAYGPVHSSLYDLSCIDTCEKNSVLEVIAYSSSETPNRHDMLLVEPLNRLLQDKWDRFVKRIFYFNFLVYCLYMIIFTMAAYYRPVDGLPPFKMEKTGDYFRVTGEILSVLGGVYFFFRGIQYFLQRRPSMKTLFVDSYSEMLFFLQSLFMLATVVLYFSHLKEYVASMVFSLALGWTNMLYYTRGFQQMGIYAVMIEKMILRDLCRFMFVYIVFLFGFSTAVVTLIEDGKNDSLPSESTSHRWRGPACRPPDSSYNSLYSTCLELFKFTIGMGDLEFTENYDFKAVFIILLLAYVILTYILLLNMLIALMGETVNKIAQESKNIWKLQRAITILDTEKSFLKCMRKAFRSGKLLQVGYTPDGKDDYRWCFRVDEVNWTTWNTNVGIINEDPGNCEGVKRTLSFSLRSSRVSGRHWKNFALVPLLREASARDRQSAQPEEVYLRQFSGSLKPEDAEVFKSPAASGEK
Sequence of TRPM8 (Q7Z2W7 whole entry, species assumed): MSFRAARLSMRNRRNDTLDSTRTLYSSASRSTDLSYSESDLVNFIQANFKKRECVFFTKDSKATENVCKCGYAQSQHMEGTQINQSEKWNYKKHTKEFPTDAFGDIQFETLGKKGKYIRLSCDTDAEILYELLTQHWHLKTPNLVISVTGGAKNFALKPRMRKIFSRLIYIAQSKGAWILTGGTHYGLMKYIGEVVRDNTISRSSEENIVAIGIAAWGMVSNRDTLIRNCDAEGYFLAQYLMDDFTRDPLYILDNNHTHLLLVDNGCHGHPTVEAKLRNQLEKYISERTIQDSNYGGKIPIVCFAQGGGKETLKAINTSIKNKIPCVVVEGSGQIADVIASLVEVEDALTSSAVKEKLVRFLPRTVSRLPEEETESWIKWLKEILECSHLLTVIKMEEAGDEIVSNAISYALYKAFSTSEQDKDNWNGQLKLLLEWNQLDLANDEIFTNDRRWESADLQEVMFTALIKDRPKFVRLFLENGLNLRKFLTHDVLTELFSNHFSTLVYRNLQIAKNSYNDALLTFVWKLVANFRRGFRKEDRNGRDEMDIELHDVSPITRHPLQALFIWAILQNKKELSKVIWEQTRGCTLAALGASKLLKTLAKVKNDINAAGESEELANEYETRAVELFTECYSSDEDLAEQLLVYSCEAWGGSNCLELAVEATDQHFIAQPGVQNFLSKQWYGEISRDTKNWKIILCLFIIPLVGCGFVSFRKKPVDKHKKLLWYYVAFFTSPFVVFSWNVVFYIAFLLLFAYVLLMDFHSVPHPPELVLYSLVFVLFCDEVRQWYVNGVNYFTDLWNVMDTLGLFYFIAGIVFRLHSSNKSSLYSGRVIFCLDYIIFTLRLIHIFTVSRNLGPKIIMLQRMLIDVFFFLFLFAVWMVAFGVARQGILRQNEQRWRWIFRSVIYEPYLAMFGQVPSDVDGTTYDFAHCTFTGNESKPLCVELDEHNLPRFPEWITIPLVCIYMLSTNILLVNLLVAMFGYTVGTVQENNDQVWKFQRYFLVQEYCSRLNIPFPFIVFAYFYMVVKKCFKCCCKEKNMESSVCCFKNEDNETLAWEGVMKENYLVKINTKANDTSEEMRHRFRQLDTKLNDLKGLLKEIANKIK

As to `COc1cc(CNC(=O)CCCC/C=C/C(C)C)ccc1O` [capsaicin, reference compound], the “AUC difference in chin temperature relative to placebo” value in [1] (human subjects) worked out at 25.26. In addition, the “participants who judged the taste intense to very intense” value in data set [2] turned out to be 87.9%. For the same compound, the nose temperature result in [3] was “increase nose temperatures”.

As for `[Zn]` [zinc], the “zinc concentration required for synergy with cinnamaldehyde on TRPA1” value in data set [4] (in vitro) is less than 1 µM.

For orientation: EC50 means the concentration needed to bring the measured effect to its halfway point. Take `O=CC=Cc1ccccc1` [cinnamaldehyde]: in data set [5] (setting [7]), the “impact on energy expenditure compared to capsaicin” value is “significantly higher impact”. Besides, the “energy expenditure compared to placebo” value in data set [5] (human subjects, over the eighty minutes following ingestion, FIGS. 3 and 4) was “increased”. The “in vitro activity of hTRPA1, positive control efficacy” value in data set [4] (according to a dose-response curve) was “maximum efficacy”. Further, the “impact on sympathetic nervous system activity compared to capsaicin” value in data set [1] (setting [7]) was “significantly higher impact”. Moreover, in [1] (human subjects), the “AUC difference in chin temperature relative to placebo” value is 34.072. For the same compound, the “chin temperature relative to baseline” value in [1] (human subjects, over the eighty minutes following ingestion, FIG. 8) is given as “increases chin temperature for a prolonged time”. At TRPA1, the EC50 was approximately 10 µM. For the same compound, the nose temperature entry in data set [3] is “increase nose temperatures”. The “activation of TRPV1” value on TRPV1 is on record as “not”. Further, on TRPM8, the “activation of TRPM8” value is “not”. In addition, in [6] (setting [7]), the “effect on fat oxidation compared to capsaicin” value is given as “equivalent effect”. For the same compound, the “postprandial fat oxidation compared to placebo” value in data set [6] (human subjects, over the 90 minutes following ingestion, FIGS. 5 and 6) was “maintained at higher levels”.

Source of the values: patent US20220133782A1, “METHODS AND COMPOSITIONS FOR USING CINNAMALDEHYDE AND ZINC FOR WEIGHT MANAGEMENT” (SOCIÉTÉ DES PRODUITS NESTLÉ S.A., priority 2014, published 2022).
